Experimental data as given in ChEMBL document CHEMBL3621083, “Dehydroabietylamine derivatives as multifunctional agents for the treatment of Alzheimer's disease” (Medchemcomm, 2014).
Calls of active or inactive are those of the source. The rule behind the calls is not given here.

Legend:
[1] = target: T1, Amyloid-beta precursor protein (Homo sapiens, UniProt P05067); experiment: Inhibition of amyloid beta-42 (unknown origin) aging fibrils disaggregation at 50 uM by thioflavin-T fluorescence assay
[2] = target: T1, Amyloid-beta precursor protein; experiment: Inhibition of amyloid beta-42 (unknown origin) self-mediated aggregation at 50 uM by thioflavin-T fluorescence assay
[3] = system: SH-SY5Y; experiment: Anti-oxidative activity in human SH-SY5Y cells assessed as reduction of ROS generation at 10 uM using DCFH-DA; assay type: functional
[4] = system: SH-SY5Y; experiment: Cytotoxicity against human SH-SY5Y cells assessed as cell viability at 10 uM after 48 hrs by MTT assay; assay type: cell-based
[5] = system: Caenorhabditis elegans; experiment: Anti-Alzheimer's activity in Caenorhabditis elegans CL4176 assessed as delay in amyloid beta-induced paralysis at 500 uM after 36 hrs of amyloid beta expression; assay type: functional, organism-based
[6] = system: Caenorhabditis elegans; experiment: Anti-Alzheimer's activity in Caenorhabditis elegans CL4176 expressing amyloid beta assessed as increase of average time of life expectancy at 500 uM (reference value: 46.9 +/- 0.54 hrs); assay type: functional
[7] = target: T1, Amyloid-beta precursor protein; experiment: Inhibition of amyloid beta-42 (unknown origin) aging fibrils disaggregation by thioflavin-T fluorescence assay
[8] = system: Caenorhabditis elegans; experiment: Anti-Alzheimer's activity in Caenorhabditis elegans CL4176 expressing amyloid beta assessed as increase of average time of life expectancy at 50 uM (reference value: 46.9 +/- 0.54 hrs); assay type: functional
[9] = system: Caenorhabditis elegans; experiment: Anti-Alzheimer's activity in Caenorhabditis elegans CL4176 expressing amyloid beta assessed as increase of average time of life expectancy at 10 uM (reference value: 46.9 +/- 0.54 hrs); assay type: functional
[10] = target: T1, Amyloid-beta precursor protein; experiment: Inhibition of amyloid beta-42 (unknown origin) beta sheets structure formation at 40 uM after 48 hrs by circular dichroism spectra analysis
[11] = target: T1, Amyloid-beta precursor protein; experiment: Increase of alpha-helics formation in amyloid beta-42 (unknown origin) at 40 uM after 48 hrs by circular dichroism spectra analysis
[12] = system: SH-SY5Y; experiment: Neuroprotective activity in human SH-SY5Y cells assessed as protection against amyloid beta-42-induced cell death at 5 to 50 uM after 48 hrs by MTT assay (reference value: 50.02 +/- 4.98%); assay type: functional
[13] = system: Caenorhabditis elegans; experiment: Anti-Alzheimer's activity in Caenorhabditis elegans CL4176 assessed as delay in amyloid beta-induced paralysis at 10 to 50 uM after 36 hrs of amyloid beta expression; assay type: functional, organism-based
[14] = target: T1, Amyloid-beta precursor protein; experiment: Inhibition of swAPP-mediated amyloid beta-42 production in human HEK293 cells at 10 uM after 48 hrs by ELISA (reference value: 100 +/-3.45%); assay type: cell-based; parameters: scale not given: the % may be the effect or the level left
[15] = target: T1, Amyloid-beta precursor protein; experiment: Inhibition of amyloid beta-42 (unknown origin) fibrils formation at 50 uM after 48 hrs by transmission electron microscopy analysis
[16] = system: Caenorhabditis elegans; experiment: Anti-Alzheimer's activity in Caenorhabditis elegans CL4176 expressing amyloid beta assessed as increase of average time of life expectancy at 200 uM (reference value: 46.9 +/- 0.54 hrs); assay type: functional
[17] = target: T1, Amyloid-beta precursor protein; experiment: Inhibition of fibrils formation in aggregated amyloid beta-42 (unknown origin) assessed as short fibril formation at 50 uM after 48 hrs by transmission electron microscopy analysis
[18] = system: Caenorhabditis elegans; experiment: Reduction of amyloid beta expression in Caenorhabditis elegans CL4176 at 10 to 50 uM by Western blot analysis; assay type: functional, organism-based
[19] = target: T1, Amyloid-beta precursor protein; experiment: Inhibition of swAPP-mediated amyloid beta-42 production in human HEK293 cells at 25 uM after 48 hrs by ELISA (reference value: 100 +/-3.45%); assay type: cell-based; parameters: scale not given: the % may be the effect or the level left
[20] = system: SH-SY5Y; experiment: Cytotoxicity against human SH-SY5Y cells assessed as cell viability at 1 to 50 uM after 48 hrs by MTT assay; assay type: cell-based
[21] = target: T1, Amyloid-beta precursor protein; experiment: Inhibition of amyloid beta-42 (unknown origin) self-mediated aggregation by thioflavin-T fluorescence assay
[22] = Cytotoxicity against human HEK293 cells expressing swAPP assessed as cell viability at 25 uM after 48 hrs by MTT assay; assay type: cell-based; conditions: read-out: Activity

T1 sequence (P05067 whole entry): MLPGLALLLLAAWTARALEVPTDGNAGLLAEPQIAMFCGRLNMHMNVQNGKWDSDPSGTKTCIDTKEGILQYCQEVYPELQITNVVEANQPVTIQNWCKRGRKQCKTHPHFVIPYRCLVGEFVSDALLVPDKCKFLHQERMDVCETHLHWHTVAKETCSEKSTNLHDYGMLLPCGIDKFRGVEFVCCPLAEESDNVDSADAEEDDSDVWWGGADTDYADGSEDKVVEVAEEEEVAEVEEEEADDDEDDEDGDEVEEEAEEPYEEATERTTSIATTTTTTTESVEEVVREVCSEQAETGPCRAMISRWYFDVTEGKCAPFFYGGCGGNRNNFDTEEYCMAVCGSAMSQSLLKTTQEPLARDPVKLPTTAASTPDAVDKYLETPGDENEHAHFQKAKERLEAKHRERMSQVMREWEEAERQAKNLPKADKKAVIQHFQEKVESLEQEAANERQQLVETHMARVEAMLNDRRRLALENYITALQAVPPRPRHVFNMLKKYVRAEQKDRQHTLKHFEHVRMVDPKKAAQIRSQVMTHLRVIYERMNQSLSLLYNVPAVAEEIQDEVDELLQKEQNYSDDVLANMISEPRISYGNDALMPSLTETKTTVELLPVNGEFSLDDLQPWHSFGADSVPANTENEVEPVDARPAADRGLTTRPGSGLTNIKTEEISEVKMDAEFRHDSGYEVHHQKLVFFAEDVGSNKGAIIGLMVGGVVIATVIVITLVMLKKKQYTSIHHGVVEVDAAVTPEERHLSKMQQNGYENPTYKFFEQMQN

SMILES	inhibition [1]	inhibition [2]	inhibition [3]	inhibition at 10 µM [3]	also measured
CC(C)c1ccc2c(c1)CC[C@H]1[C@](C)(CN)CCC[C@]21C	inactive	inactive	inactive		
CC(C)c1ccc2c(c1)/C(=N/O)C[C@H]1[C@](C)(CNC(=O)C(F)(F)F)CCC[C@]21C	inactive	inactive		34.1%	
CC(=O)NC[C@]1(C)CCC[C@]2(C)c3ccc(C(C)C)cc3/C(=N/NC(C)=O)C[C@@H]12	inactive	inactive	inactive		
CC(=O)NC[C@]1(C)CCC[C@]2(C)c3ccc(C(C)C)cc3/C(=N/NC(=O)c3ccncc3)C[C@@H]12	inactive	inactive	inactive		
CC(C)c1ccc2c(c1)CC[C@H]1[C@](C)(C/N=C\c3ccc(O)cc3O)CCC[C@]21C	10.7%	24.5%		26.1%	Activity [4]: Non-toxic
CC(C)c1ccc2c(c1)C(=O)C[C@H]1[C@](C)(CNC(=O)C(F)(F)F)CCC[C@]21C	inactive	inactive		19.8%	
C/C=C1\[C@H]2C=C(C)C[C@]1(N)c1ccc(=O)[nH]c1C2 [HUPERZINE A]					Activity [5]: Active; Time [6]: 48.3 h
CC(=O)NC[C@]1(C)CCC[C@]2(C)c3ccc(C(C)C)cc3/C(=N/OC(=O)c3ccc(Cl)cc3)C[C@@H]12	inactive	inactive		10.4%	
CC(C)c1c(NC(=O)/C=C/c2ccc(O)c(O)c2)cc2c(c1[N+](=O)[O-])CC[C@H]1[C@](C)(CNC(=O)/C=C/c3ccc(O)c(O)c3)CCC[C@]21C	82.8%	92%		62.4%	inhibition [7]: Dose-dependent effect; Time [8]: 50.5 h; Time [9]: 48.2 h; inhibition [10]: Active; Activity [11]: Active; Activity [12]: 53.5%; Activity [13]: Active; Activity [14]: 45.6%; Time [6]: 44.7 h; inhibition [15]: Active; Time [16]: 48.8 h; inhibition [17]: Active; Activity [18]: Active; Activity [4]: Non-toxic; Activity [19]: 10.4%; Activity [20]: Non-toxic; IC50 [21]: 3.96 µM; viability at 48 h, 25 µM [22]: > 90%
CC(=O)Oc1cc(C(=O)NC[C@]2(C)CCC[C@]3(C)c4ccc(C(C)C)cc4CC[C@@H]23)cc(OC(C)=O)c1OC(C)=O	37.6%	55.3%		41.8%	Activity [4]: Non-toxic
CC(C)c1c(N)cc2c(c1[N+](=O)[O-])CC[C@H]1[C@](C)(CN)CCC[C@]21C	inactive	inactive	inactive		
CC(=O)NC[C@]1(C)CCC[C@]2(C)c3ccc(C(C)C)cc3/C(=N/O)C[C@@H]12	inactive	inactive		41.2%	
CC(=O)NC[C@]1(C)CCC[C@]2(C)c3ccc(C(C)C)cc3/C(=N\NC(N)=O)C[C@@H]12	inactive	inactive		13.3%	
CC(C)c1ccc2c(c1)C(=O)C[C@H]1[C@](C)(CN)CCC[C@]21C	inactive	inactive	inactive		
CC(C)c1c(NC(=O)/C=C/c2ccc(O)c(O)c2)cc2c(c1NC(=O)/C=C/c1ccc(O)c(O)c1)CC[C@H]1[C@](C)(CNC(=O)/C=C/c3ccc(O)c(O)c3)CCC[C@]21C	82.5%	93.3%		53.9%	Activity [4]: Non-toxic
CC(C)c1ccc2c(c1)CC[C@H]1[C@](C)(CNC(=O)c3cc(O)c(O)c(O)c3)CCC[C@]21C	49%	74.6%		50.8%	Activity [4]: Non-toxic
CC(=O)NC[C@]1(C)CCC[C@]2(C)c3ccc(C(C)C)cc3/C(=N\NC(N)=S)C[C@@H]12	inactive	inactive	inactive		
CC(C)c1ccc2c(c1)/C(=N/NC(=O)c1ccncc1)C[C@H]1[C@](C)(CNC(=O)C(F)(F)F)CCC[C@]21C	inactive	inactive	inactive		
COc1cc(/C=C/C(=O)CC(=O)/C=C/c2ccc(O)c(OC)c2)ccc1O [CURCUMIN]				37.9%	Activity [4]: Non-toxic
CC(C)c1c(N)cc2c(c1[N+](=O)[O-])CC[C@H]1[C@](C)(CNC(=O)c3ccc(O)c(O)c3)CCC[C@]21C	14.2%	26.1%		31.2%	
CC(=O)Oc1cc(/C=N\C[C@]2(C)CCC[C@]3(C)c4ccc(C(C)C)cc4CC[C@@H]23)cc(OC(C)=O)c1OC(C)=O	8.93%	20.6%		48.2%	
